From patent publication US12331041B2, “GLP-1 receptor agonists and uses thereof” (Pfizer Inc., priority 2018, dated 2025)
Counter-ions that a name gives are not always drawn.

Legend:
human GLP-1R [1] = molecular target: T1, human GLP-1R (Homo sapiens, UniProt P43220, G168S); assay: CHO GLP-1R Clone H6 - Assay 1 (HTRF cAMP agonist assay); format: cell-based; conditions: for EC50: CHO Clone H6, high GLP-1R density, cAMP, geometric mean; for Emax / Assay 1 Emax (%): CHO Clone H6, relative to saturating full agonist GLP-1 7-36 (1 μM), arithmetic mean
T1 construct: expressed in transfected cells
T1 sequence (P43220 24-463 G168S): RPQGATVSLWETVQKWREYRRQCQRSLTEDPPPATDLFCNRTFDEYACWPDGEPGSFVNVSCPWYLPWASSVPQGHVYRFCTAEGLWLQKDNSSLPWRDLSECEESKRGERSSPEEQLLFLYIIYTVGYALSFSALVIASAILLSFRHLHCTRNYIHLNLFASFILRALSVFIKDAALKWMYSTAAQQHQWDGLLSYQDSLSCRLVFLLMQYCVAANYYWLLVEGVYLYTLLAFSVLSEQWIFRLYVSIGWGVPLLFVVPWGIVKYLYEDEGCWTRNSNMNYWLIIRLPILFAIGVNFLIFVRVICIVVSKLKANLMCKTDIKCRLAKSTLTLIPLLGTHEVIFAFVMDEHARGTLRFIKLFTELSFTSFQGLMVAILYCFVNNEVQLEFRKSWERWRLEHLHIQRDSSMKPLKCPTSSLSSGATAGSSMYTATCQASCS
Experimental: GLP-1R-mediated agonist activity was determined with a cell-based functional assay utilizing an HTRF (Homogeneous Time-Resolved Fluorescence) cAMP detection kit (cAMP HI Range Assay Kit; CisBio cat #62AM6PEJ) that measures cAMP levels in the cell. The method is a competitive immunoassay between native cAMP produced by the cells and exogenous cAMP labeled with the dye d2, The tracer binding is visualized by a mAb anti-cAMP labeled with Cryptate. The specific signal (i.e. energy transfer) is inversely proportional to the concentration of cAMP in either standard or experimental sample.
The human GLP-1R coding sequence (NCBI Reference Sequence NP_002053.3, including naturally-occurring variant Gly168Ser) was subcloned into pcDNA3 (Invitrogen) and a cell line stably expressing the receptor was isolated (designated Clone H6).
(§1) A 1 mL sample of the cell suspension in growth media was counted on a Becton Dickinson ViCell to determine cell viability and cell count per mL. The remaining cell suspension was then adjusted with growth media to deliver 2000 viable cells per well using a Matrix Combi Multidrop reagent dispenser, and the cells were dispensed into a white 384 well tissue culture treated assay plate (Corning 3570). The assay plate was then incubated for 48 hours at 37° C. in a humidified environment in 5% carbon dioxide.
Varying concentrations of each compound to be tested (in DMSO) were diluted in assay buffer (HBSS with Calcium/Magnesium (Lonza/BioWhittaker cat #10-527F)/0.1% BSA (Sigma Aldrich cat #A7409-1L)/20 mM HEPES (Lonza/BioWhittaker cat #17-737E) containing 100 μM 3-isobutyl-1-methylxanthin (IBMX; Sigma cat #15879). The final DMSO concentration is 1%.
After 48 hours, the growth media was removed from the assay plate wells, and the cells were treated with 20 μL of the serially diluted compound in assay buffer for 30 minutes at 37° C. in a humidified environment in 5% carbon dioxide. Following the 30 minute incubation, 10 μL of labeled d2 cAMP and 10 μL of anti-cAMP antibody (both diluted 1:20 in cell lysis buffer; as described in the manufacturer's assay protocol) were added to each well of the assay plate. The plates were then incubated at room temperature and after 60 minutes, changes in the HTRF signal were read with an Envision 2104 multi-label plate reader using excitation of 330 nm and emissions of 615 and 665 nm. Raw data were converted to nM cAMP by interpolation from a cAMP standard curve (as described in the manufacturer's assay protocol) and the percent effect was determined relative to a saturating concentration of the full agonist GLP-17-36 (1 μM) included on each plate. EC50 determinations were made from agonist dose-response curves analyzed with a curve fitting program using a 4-parameter logistic dose response equation.

human GLP-1R [2] = molecular target: T2, human GLP-1R (Homo sapiens, UniProt P43220, L260F); assay: CHO GLP-1R Clone C6 - Assay 2 (HTRF cAMP agonist assay); format: cell-based; conditions: for EC50: CHO clone C6, low GLP-1R density, cAMP, geometric mean; for Emax: CHO clone C6, relative to saturating full agonist GLP-1 (1 μM), arithmetic mean
T2 construct: expressed in transfected cells; host or cells: CHO Flp-In T-REx, clonal line C6 (pcDNA5-FRT-TO)
T2 sequence (P43220 24-463 L260F): as the sequence (P43220 24-463 G168S) above, with S145G, L237F counted along it
Experimental: GLP-1R-mediated agonist activity was determined with a cell-based functional assay utilizing an HTRF (Homogeneous Time-Resolved Fluorescence) cAMP detection kit (cAMP HI Range Assay Kit; Cis Bio cat #62AM6PEJ) that measures cAMP levels in the cell. The method is a competitive immunoassay between native cAMP produced by the cells and exogenous cAMP labeled with the dye d2. The tracer binding is visualized by a mAb anti-cAMP labeled with Cryptate. The specific signal (i.e. energy transfer) is inversely proportional to the concentration of cAMP in either a standard or an experimental sample.
The human GLP-1R coding sequence (NCBI Reference Sequence NP_002053.3, including naturally-occurring variant Leu260Phe) was subcloned into pcDNA5-FRT-TO and a clonal CHO cell line stably expressing a low receptor density was isolated using the Flp-In™ T-Rex™ System, as described by the manufacturer (ThermoFisher).
as §1, with “deliver 1600” for “deliver 2000”, “48 h” for “48 hours”, “environment (95% O2,” for “environment in”, “5% CO2)” for “5% carbon dioxide.”
Varying concentrations of each compound to be tested (in DMSO) were diluted in assay buffer [HBSS with Calcium/Magnesium (Lonza/BioWhittaker cat #10-527F)/0.1% BSA (Sigma Aldrich cat #A7409-1L)/20 mM HEPES (Lonza/BioWhittaker cat #17-737E)] containing 100 μM 3-isobutyl-1-methylxanthin (IBMX; Sigma cat #15879). The final DMSO concentration in the compound/assay buffer mixture is 1%.
After 48 h, the growth media was removed from the assay plate wells, and the cells were treated with 20 μL of the serially diluted compound in assay buffer for 30 min at 37° C. in a humidified environment (95% O2, 5% CO2). Following the 30 min incubation, 10 μL of labeled d2 cAMP and 10 μL of anti-cAMP antibody (both diluted 1:20 in cell lysis buffer; as described in the manufacturer's assay protocol) were added to each well of the assay plate. The plates were then incubated at room temperature and after 60 minutes, changes in the HTRF signal were read with an Envision 2104 multi-label plate reader using excitation of 330 nm and emissions of 615 and 665 nm. Raw data were converted to nM cAMP by interpolation from a cAMP standard curve (as described in the manufacturer's assay protocol) and the percent effect was determined relative to a saturating concentration of the full agonist GLP-1 (1 μM) included on each plate. EC50 determinations were made from agonist dose response curves analyzed with a curve fitting program using a 4-parameter logistic dose response equation.

| Compound | EC50 (human GLP-1R [1]) [nM] | Emax (human GLP-1R [1]) [%] | EC50 (human GLP-1R [2]) [nM] | Emax (human GLP-1R [2]) [%] | Assay 1 Emax (%) (human GLP-1R [1]) |
| --- | --- | --- | --- | --- | --- |
| Cn1c(CN2CCC(c3nccnc3OCc3ccc(Cl)cc3F)CC2)nc2cnc(C(=O)O)cc21 [Example 29, 2-[(4-{3-[(4-Chloro-2-fluorobenzyl)oxy]pyrazin-2-yl}piperidin-1-yl)methyl]-1-methyl-1H-imidazo[4,5-c]pyridine-6-carboxylic acid, trifluoroacetate salt] | 1800 | 65 |  |  |  |
| C[C@H]1CN(c2nccnc2OCc2ccc(Cl)cc2F)CCN1Cc1nc2ccc(C(=O)O)nc2n1C [Example 34, 2-{[(2S)-4-{3-[(4-Chloro-2-fluorobenzyl)oxy]pyrazin-2-yl}-2-methylpiperazin-1-yl]methyl}-3-methyl-3H-imidazo[4,5-b]pyridine-5-carboxylic acid, trifluoroacetate salt] | 1900 | 92 |  |  |  |
| N#Cc1ccc(COc2ncccc2C2CCN(Cc3nc4ccc(C(=O)O)nc4n3C[C@@H]3CCO3)CC2)c(F)c1 [Example 18, ammonium 2-[(4-{2-[(4-cyano-2-fluorobenzyl)oxy]pyridin-3-yl}piperidin-1-yl)methyl]-3-[(2S)-oxetan-2-ylmethyl]-3H-imidazo[4,5-b]pyridine-5-carboxylate] |  |  | 59 | 100 |  |
| COCCn1c(C2CC23CCN(c2nc(OCc4ccc(Cl)cc4F)ncc2F)CC3)nc2cnc(C(=O)O)cc21 (single isomer, unassigned) [Example 32, 2-(6-{2-[(4-chloro-2-fluorobenzyl)oxy]-5-fluoropyrimidin-4-yl}-6-azaspiro[2.5]oct-1-yl)-1-(2-methoxyethyl)-1H-imidazo[4,5-c]pyridine-6-carboxylic acid, trifluoroacetate salt, single enantiomer; from C23] | > 20000 |  |  |  |  |
| C[C@H]1CN(c2nc(OCc3ccc(C#N)cc3)ncc2F)CCN1Cc1nc2ccc(C(=O)O)cc2n1CCC(F)(F)F [Example 70, ammonium 2-{[(2S)-4-{2-[(4-cyanobenzyl)oxy]-5-fluoropyrimidin-4-yl}-2-methylpiperazin-1-yl]methyl}-1-(3,3,3-trifluoropropyl)-1H-benzimidazole-6-carboxylate] | 700 | 79 |  |  |  |
| N#Cc1ccc(COc2nccnc2C2CCN(Cc3nc4ccc(C(=O)O)cc4n3C[C@@H]3CCO3)CC2)c(F)c1 [Example 28, ammonium 2-[(4-{3-[(4-cyano-2-fluorobenzyl)oxy]pyrazin-2-yl}piperidin-1-yl)methyl]-1-[(2S)-oxetan-2-ylmethyl]-1H-benzimidazole-6-carboxylate] |  |  | 150 | 98 |  |
| Cn1cnc(Cn2c(CN3CCC(c4ccnc(OCc5ccc(Cl)cc5F)n4)CC3)nc3ccc(C(=O)O)cc32)c1 [Example 66, 2-[(4-{2-[(4-chloro-2-fluorobenzyl)oxy]pyrimidin-4-yl}piperidin-1-yl)methyl]-1-[(1-methyl-1H-imidazol-4-yl)methyl]-1H-benzimidazole-6-carboxylic acid] | 170 | 110 |  |  |  |
| Cn1nncc1Cn1c(CN2CCC(c3cccnc3OCc3ccc(Cl)cc3F)CC2)nc2ccc(C(=O)O)cc21 [Example 10, 2-[(4-{2-[(4-chloro-2-fluorobenzyl)oxy]pyridin-3-yl}piperidin-1-yl)methyl]-1-[(1-methyl-1H-1,2,3-triazol-5-yl)methyl]-1H-benzimidazole-6-carboxylic acid, trifluoroacetate salt] |  |  | 220 | 100 |  |
| O=C(O)c1ccc2nc(C3CC34CCN(c3nc(OCc5ccc(Cl)cc5F)ncc3F)CC4)n(CCn3cncn3)c2c1 (single isomer, unassigned) [Example 42, 2-(6-{2-[(4-chloro-2-fluorobenzyl)oxy]-5-fluoropyrimidin-4-yl}-6-azaspiro[2.5]oct-1-yl)-1-[2-(1H-1,2,4-triazol-1-yl)ethyl]-1H-benzimidazole-6-carboxylic acid, trifluoroacetate salt, from C23] | 3400 |  |  |  | 89 |
| COCCn1c(C2CC23CCN(c2ccnc(OCc4ccc(Cl)cc4F)n2)CC3)nc2ccc(C(=O)O)cc21 (single isomer, unassigned; ent-1) [Example 46, Ammonium 2-(6-{2-[(4-chloro-2-fluorobenzyl)oxy]pyrimidin-4-yl}-6-azaspiro[2.5]oct-1-yl)-1-(2-methoxyethyl)-1H-benzimidazole-6-carboxylate, ENT-1] | > 9700 | 100 |  |  |  |
| N#Cc1ccc(COc2nc(N3CCC4(CC3)CC4c3nc4ccc(C(=O)O)cc4n3CC3CCO3)c(F)cc2F)c(F)c1 (single isomer, unassigned; ent-2) [Example 58] | 43 |  |  |  | 74 |
| CCn1cncc1Cn1c(CN2CCC(c3ccnc(OCc4ccc(Cl)cc4F)n3)CC2)nc2ccc(C(=O)O)cc21 [Example 63, 2-[(4-{2-[(4-chloro-2-fluorobenzyl)oxy]pyrimidin-4-yl}piperidin-1-yl)methyl]-1-[(1-ethyl-1H-imidazol-5-yl)methyl]-1H-benzimidazole-6-carboxylic acid] |  |  | 10 | 97 |  |
| COCCn1c(C2CC23CCN(c2cccc(OCc4ccc(Cl)cc4F)n2)CC3)nc2ncc(C(=O)O)cc21 (single isomer, unassigned) [Example 48, 2-(6-{6-[(4-chloro-2-fluorobenzyl)oxy]pyridin-2-yl}-6-azaspiro[2.5]oct-1-yl)-1-(2-methoxyethyl)-1H-imidazo[4,5-b]pyridine-6-carboxylic acid, ENT-1] | 2600 | 56 |  |  |  |
| COCCn1c(C2CC23CCN(c2nc(OCc4ccc(Cl)cc4F)ncc2F)CC3)nc2cnc(C(=O)O)cc21 (single isomer, unassigned) [Example 31, 2-(6-{2-[(4-chloro-2-fluorobenzyl)oxy]-5-fluoropyrimidin-4-yl}-6-azaspiro[2.5]oct-1-yl)-1-(2-methoxyethyl)-1H-imidazo[4,5-c]pyridine-6-carboxylic acid, trifluoroacetate salt, single enantiomer; from P7] | 300 | 65 |  |  |  |
